Data on 2 molecules can be found in patent US11382894B2, “Pharmaceutical compositions for use in the treatment of cardiovascular calcification” (INSERM (INSTITUT NATIONAL DE LA SANTE ET DE LA RECHERCHE …, priority 2017, dated 2022).

Test [1] concerns Rat aortic rings. Put plainly: Calcium content of rat aortic rings cultured ex vivo in procalcifying conditions (O-Cresolphthalein colorimetric assay). It is filed as cell-based. The conditions noted are these: Pi 3.8 mM, 7 days; for Effect on calcium content of rat aortas (in words): procalcifying conditions; for Aortic calcium content: Pi alone = 100%. The method, then:
Materials and methods: Rat aortic rings were cultured in procalcifying conditions using inorganic phosphate (Pi: 3.8 mM) for 7 days. […] Rat aortic calcium content was determined using a calcium colorimetric assay with O-Cresolphthalein.
Materials and methods: Rat aortic rings were cultured in procalcifying conditions using inorganic phosphate (Pi: 3.8 mM) for 7 days. N-acetyl-S-farnesyl-L-cysteine (AFC)—sEH phosphatase domain inhibitor—was added at concentrations, ranging from 0.1 to 10 μM (n=4-21 per group). Rat aortic calcium content was determined using a calcium colorimetric assay with O-Cresolphthalein.
Materials and methods: Rat aortic rings were cultured in procalcifying conditions using inorganic phosphate (Pi: 3.8 mM) for 7 days in absence and in presence of ebselen at a concentration of 1 and 10 μM (n=6-8 per group).

The test system of test [2] is Human valvular interstitial cells (VICs). Description: Calcium content of human valvular interstitial cells cultured in procalcifying conditions (O-Cresolphthalein colorimetric assay). The conditions noted are these: Pi 3 mM; for VICs calcium content: mean±SEM; for Effect on calcium content of valvular interstitial cells (in words): procalcifying conditions. It is filed as cell-based. As to the method:
Materials and methods: Human valvular interstitial cells (VICs) were cultured in procalcifying conditions using inorganic phosphate (Pi: 3 mM) for 14 days. N-acetyl-S-farnesyl-L-cysteine (AFC)—sEH phosphatase domain inhibitor—was added at concentrations, ranging from 0.1 to 5 μM (n=5-6 per group). VICs aortic calcium content was determined using a calcium colorimetric assay with O-Cresolphthalein.
Materials and methods: Human valvular interstitial cells (VICs) were cultured in procalcifying conditions using inorganic phosphate (Pi: 3 mM) for 10 days. Ebselen—sEH phosphatase domain inhibitor—was added at the concentrations of 0.1 and 1 μM (n=4 per group). VICs aortic calcium content was determined using a calcium colorimetric assay with O-Cresolphthalein.

The mark [3] stands for this setting: rat aortic rings, compound 1 μM.
Setting [4] is: rat aortic rings, compound 10 μM.

Turning to `CC(=O)N[C@@H](CSC/C=C(\C)CC/C=C(\C)CCC=C(C)C)C(=O)O` [AFC, N-acetyl-S-farnesyl-L-cysteine], the “Effect on calcium content of rat aortas (in words)” value in test [1] is recorded as “dose-dependently reduces”. Further, the “Alizarin Red and VonKossa histochemical staining” value in test [1] (rat aortic rings) is reported as “confirmed these results”. Moreover, the Aortic calcium content in test [1] (rat aortic rings, compound 0.1 μM) amounted to 83.6±9.1%; in test [1] (setting [3]), 74.2±2.9%; in test [1] (setting [4]), 54.5±12%. For the same molecule, the “Alizarin Red staining” value in test [2] (human VICs, 14 days) was “confirmed these results”. The VICs calcium content in test [2] (human VICs, 14 days, compound 0.1 μM, Pi alone 90.3±4.6 μg) is 76.7 ± 5.7 µg; in test [2] (human VICs, 14 days, compound 1 μM, Pi alone 90.3±4.6 μg) it was 51.1 ± 2.9 µg; in test [2] (human VICs, 14 days, compound 5 μM, Pi alone 90.3±4.6 μg) it was 45.8 ± 2 µg. Besides, the “Effect on calcium content of valvular interstitial cells (in words)” value in test [2] (14 days) is on record as “dose-dependently reduces”.

As to `O=c1c2ccccc2[se]n1-c1ccccc1` [ebselen], the “Effect on calcium content of rat aortas (in words)” value in test [1] is given as “dose-dependently reduces”. Moreover, the figures for the Aortic calcium content in test [1] (setting [3]) and in test [1] (setting [4]) were 77±8% and 62±7%, respectively. The VICs calcium content came to 88.8±11% in test [2] (human VICs, 10 days, compound 0.1 μM, Pi alone = 100%) and 67.6±7.2% in test [2] (human VICs, 10 days, compound 1 μM, Pi alone = 100%). In addition, the “Effect on calcium content of valvular interstitial cells (in words)” value in test [2] (10 days) is “dose-dependently reduces”.
